Experimental data taken from ChEMBL document CHEMBL3734692, “Design and synthesis of 2-oxindole based multi-targeted inhibitors of PDK1/Akt signaling pathway for the treatment of glioblastoma multiforme” (Eur J Med Chem, 2015).
Active and inactive are the calls of the source. The rule behind the calls is not given here.

Columns and labels:
[1] = molecular target: Casein kinase II subunit alpha' (Homo sapiens) (UniProt P19784); assay: Inhibition of CK2alpha2 (unknown origin) at 1 uM by selectscreen kinase profiling assay in presence of ATP
Casein kinase II subunit alpha' (Homo sapiens), sequence (P19784 whole entry, looked up): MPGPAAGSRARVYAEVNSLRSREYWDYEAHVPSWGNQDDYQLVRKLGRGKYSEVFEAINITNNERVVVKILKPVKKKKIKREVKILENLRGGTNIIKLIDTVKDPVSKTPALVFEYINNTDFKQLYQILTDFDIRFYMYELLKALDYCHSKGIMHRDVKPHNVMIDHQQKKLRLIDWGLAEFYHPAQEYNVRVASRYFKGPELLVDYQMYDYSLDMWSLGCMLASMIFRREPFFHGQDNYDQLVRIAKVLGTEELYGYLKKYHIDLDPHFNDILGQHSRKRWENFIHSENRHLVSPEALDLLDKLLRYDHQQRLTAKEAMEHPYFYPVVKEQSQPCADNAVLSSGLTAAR

[2] = molecular target: T1, AMP-activated protein kinase, AMPK (Homo sapiens) (UniProt P54646+O43741+P54619+Q9UGJ0+Q9Y478+Q13131+Q9UGI9); assay: Inhibition of AMPK A1/B1/G1 (unknown origin) at 1 uM by selectscreen kinase profiling assay in presence of ATP; format: protein-complex assay
[3] = test system: ASPC1; assay: Cytotoxicity against human AsPC1 cells assessed as cell viability 10 uM after 72 hrs by cell counting analysis relative to control; format: functional
[4] = molecular target: MAP kinase-activated protein kinase 2 (Homo sapiens) (UniProt P49137); assay: Inhibition of MAPKAPK2 (unknown origin) at 1 uM by selectscreen kinase profiling assay in presence of ATP
[5] = molecular target: Phosphatidylinositol 4-kinase beta (Homo sapiens) (UniProt Q9UBF8); assay: Inhibition of PI4Kbeta (unknown origin) at 1 uM by selectscreen kinase profiling assay in presence of ATP
Phosphatidylinositol 4-kinase beta (Homo sapiens), sequence (Q9UBF8 2-816 limits assumed): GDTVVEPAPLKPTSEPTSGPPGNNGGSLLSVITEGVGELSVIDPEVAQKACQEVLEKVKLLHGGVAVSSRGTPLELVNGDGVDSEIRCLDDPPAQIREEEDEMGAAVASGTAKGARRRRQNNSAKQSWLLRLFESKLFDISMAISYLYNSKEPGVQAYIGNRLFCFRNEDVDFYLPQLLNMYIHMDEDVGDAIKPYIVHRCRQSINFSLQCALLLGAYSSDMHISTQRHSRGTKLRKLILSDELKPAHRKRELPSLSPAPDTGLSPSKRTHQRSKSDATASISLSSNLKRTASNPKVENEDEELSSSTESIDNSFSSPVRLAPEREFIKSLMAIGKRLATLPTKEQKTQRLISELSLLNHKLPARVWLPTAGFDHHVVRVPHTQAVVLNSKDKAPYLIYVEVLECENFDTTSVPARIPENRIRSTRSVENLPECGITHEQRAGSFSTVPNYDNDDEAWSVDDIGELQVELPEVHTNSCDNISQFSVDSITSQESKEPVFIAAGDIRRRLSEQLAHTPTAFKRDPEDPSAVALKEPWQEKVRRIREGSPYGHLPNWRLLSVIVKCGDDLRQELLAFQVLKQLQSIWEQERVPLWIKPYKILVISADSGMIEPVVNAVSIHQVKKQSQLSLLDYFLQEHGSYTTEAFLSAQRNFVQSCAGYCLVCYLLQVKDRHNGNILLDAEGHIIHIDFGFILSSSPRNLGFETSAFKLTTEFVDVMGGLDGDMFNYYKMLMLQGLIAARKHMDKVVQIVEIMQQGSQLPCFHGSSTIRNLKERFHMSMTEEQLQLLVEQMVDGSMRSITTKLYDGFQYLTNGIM

[6] = molecular target: Casein kinase I isoform gamma-1 (Homo sapiens) (UniProt Q9HCP0); assay: Inhibition of CK1gamma1 (unknown origin) at 1 uM by selectscreen kinase profiling assay in presence of ATP
[7] = Induction of apoptosis in human GSC derived from ANGM-CSS cells assessed as late apoptotic cells at 1 uM after 7 days by annexin V-FITC/7-AAD dual staining based cell analysis (reference value: 2.51%); format: functional
[8] = molecular target: Rho-associated protein kinase 2 (Homo sapiens) (UniProt O75116); assay: Inhibition of ROCK2 (unknown origin) at 1 uM by selectscreen kinase profiling assay in presence of ATP
[9] = molecular target: Serine/threonine-protein kinase Chk1 (Homo sapiens) (UniProt O14757); assay: Inhibition of CHEK1 (unknown origin) at 1 uM by selectscreen kinase profiling assay in presence of ATP
[10] = Cell cycle arrest in human ANGM-CSS cells assessed as accumulation at G2/M phase at 1 uM after 7 days by based fluorescent reagent based cell analysis (reference value: 23.8%); format: functional
[11] = test system: ANGM-CSS; assay: Induction of human GSC differentiation derived from ANGM-CSS cells assessed as up regulation of olig mRNA expression at 1 uM after 7 days by RT-PCR analysis; format: functional, cell-based
[12] = molecular target: Glycogen synthase kinase-3 beta (Homo sapiens, UniProt P49841); assay: Inhibition of GSK3beta (unknown origin) in presence of 10 uM ATP incubated for 1 hr by Z'Lyte assay
[13] = molecular target: Mitogen-activated protein kinase 1 (Homo sapiens) (UniProt P28482); assay: Inhibition of ERK2 (unknown origin) at 1 uM by selectscreen kinase profiling assay in presence of ATP
Mitogen-activated protein kinase 1 (Homo sapiens), sequence (P28482 whole entry): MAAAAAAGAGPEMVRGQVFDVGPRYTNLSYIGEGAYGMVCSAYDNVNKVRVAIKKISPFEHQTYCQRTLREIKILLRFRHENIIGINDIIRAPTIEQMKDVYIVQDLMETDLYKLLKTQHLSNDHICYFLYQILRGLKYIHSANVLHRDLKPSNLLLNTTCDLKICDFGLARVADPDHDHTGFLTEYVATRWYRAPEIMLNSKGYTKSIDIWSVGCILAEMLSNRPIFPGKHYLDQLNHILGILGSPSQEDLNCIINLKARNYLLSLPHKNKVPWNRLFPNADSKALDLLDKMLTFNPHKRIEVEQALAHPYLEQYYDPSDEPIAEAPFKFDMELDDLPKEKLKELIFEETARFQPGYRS

[14] = Induction of apoptosis in human ANGM-CSS cells assessed as late apoptotic cells at 1 uM after 7 days by annexin V-FITC/7-AAD dual staining based cell analysis (reference value: 3.39%); format: functional
[15] = molecular target: Cyclin-dependent kinase 5/CDK5 activator 1 (Homo sapiens) (UniProt Q00535+Q15078); assay: Inhibition of CDK5/p25 (unknown origin) at 1 uM by selectscreen kinase profiling assay in presence of ATP; format: protein-complex assay
[16] = molecular target: Tyrosine-protein kinase ABL1 (Homo sapiens) (UniProt P00519); assay: Inhibition of ABL1 (unknown origin) at 1 uM by selectscreen kinase profiling assay in presence of ATP
Tyrosine-protein kinase ABL1 (Homo sapiens), sequence (P00519 whole entry): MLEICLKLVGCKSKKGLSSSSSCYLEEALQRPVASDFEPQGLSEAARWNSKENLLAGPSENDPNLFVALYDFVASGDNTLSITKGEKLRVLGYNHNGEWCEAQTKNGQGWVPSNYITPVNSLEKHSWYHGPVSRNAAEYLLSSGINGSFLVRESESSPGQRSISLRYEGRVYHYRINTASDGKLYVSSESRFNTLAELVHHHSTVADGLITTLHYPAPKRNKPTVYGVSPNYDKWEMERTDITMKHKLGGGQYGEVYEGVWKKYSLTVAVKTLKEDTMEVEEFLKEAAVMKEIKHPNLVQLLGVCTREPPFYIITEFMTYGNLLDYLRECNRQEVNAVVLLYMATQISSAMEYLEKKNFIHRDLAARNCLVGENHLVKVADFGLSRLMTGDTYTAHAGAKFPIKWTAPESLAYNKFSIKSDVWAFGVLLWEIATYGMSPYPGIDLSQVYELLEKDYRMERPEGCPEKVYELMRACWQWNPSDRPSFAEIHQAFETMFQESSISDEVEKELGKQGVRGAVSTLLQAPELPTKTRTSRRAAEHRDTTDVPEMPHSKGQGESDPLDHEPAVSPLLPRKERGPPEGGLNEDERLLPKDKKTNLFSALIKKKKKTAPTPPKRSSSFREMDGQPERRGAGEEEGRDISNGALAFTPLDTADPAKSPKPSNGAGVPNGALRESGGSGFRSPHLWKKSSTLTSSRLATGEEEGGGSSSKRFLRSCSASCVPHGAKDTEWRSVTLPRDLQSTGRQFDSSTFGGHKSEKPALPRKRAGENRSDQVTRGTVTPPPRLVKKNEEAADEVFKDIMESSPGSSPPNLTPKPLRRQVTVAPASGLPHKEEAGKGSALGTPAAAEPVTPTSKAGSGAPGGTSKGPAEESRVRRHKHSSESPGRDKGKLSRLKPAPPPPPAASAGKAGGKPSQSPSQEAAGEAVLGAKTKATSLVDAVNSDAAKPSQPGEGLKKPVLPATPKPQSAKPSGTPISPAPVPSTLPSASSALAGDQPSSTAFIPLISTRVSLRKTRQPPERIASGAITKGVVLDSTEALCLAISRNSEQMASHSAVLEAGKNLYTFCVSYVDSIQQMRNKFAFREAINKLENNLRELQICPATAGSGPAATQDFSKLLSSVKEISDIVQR

[17] = test system: ANGM-CSS; assay: Antiproliferative activity against human GSC derived from ANGM-CSS cells after 7 days by MTS assay; format: functional, cell-based
[18] = molecular target: CDK2/Cyclin A2 (Homo sapiens) (UniProt P24941+P20248); assay: Inhibition of CDK2/cyclin A (unknown origin) at 1 uM by selectscreen kinase profiling assay in presence of ATP; format: protein-complex assay
[19] = molecular target: PI3-kinase p110-alpha/p85-alpha (Homo sapiens) (UniProt P27986+P42336); assay: Inhibition of PIK3CA/PIK3R1 (unknown origin) at 1 uM by selectscreen kinase profiling assay in presence of ATP; format: protein-complex assay
[20] = molecular target: Protein kinase C alpha type (Homo sapiens) (UniProt P17252); assay: Inhibition of PKCalpha (unknown origin) at 1 uM by selectscreen kinase profiling assay in presence of ATP
[21] = Induction of apoptosis in human ANGM-CSS cells assessed as early apoptotic cells at 1 uM after 7 days by annexin V-FITC/7-AAD dual staining based cell analysis (reference value: 2.12%); format: functional
[22] = molecular target: Proto-oncogene tyrosine-protein kinase Src (Homo sapiens) (UniProt P12931); assay: Inhibition of SRC (unknown origin) at 1 uM by selectscreen kinase profiling assay in presence of ATP
[23] = molecular target: Tyrosine-protein kinase JAK1 (Homo sapiens) (UniProt P23458); assay: Inhibition of JAK1 (unknown origin) at 1 uM by selectscreen kinase profiling assay in presence of ATP
[24] = molecular target: Ribosomal protein S6 kinase alpha-1 (Homo sapiens) (UniProt Q15418); assay: Inhibition of RSK1 (unknown origin) at 1 uM by selectscreen kinase profiling assay in presence of ATP
[25] = molecular target: Calcium/calmodulin-dependent protein kinase type II subunit alpha (Homo sapiens) (UniProt Q9UQM7); assay: Inhibition of CAMK2alpha (unknown origin) at 1 uM by selectscreen kinase profiling assay in presence of ATP
[26] = Cell cycle arrest in human ANGM-CSS cells assessed as accumulation at S phase at 1 uM after 7 days by based fluorescent reagent based cell analysis (reference value: 4.1%); format: functional
[27] = molecular target: Tyrosine-protein kinase BTK (Homo sapiens) (UniProt Q06187); assay: Inhibition of BTK (unknown origin) at 1 uM by selectscreen kinase profiling assay in presence of ATP
[28] = molecular target: Mitogen-activated protein kinase 3 (Homo sapiens) (UniProt P27361); assay: Inhibition of ERK1 (unknown origin) at 1 uM by selectscreen kinase profiling assay in presence of ATP
Mitogen-activated protein kinase 3 (Homo sapiens), sequence (P27361 whole entry): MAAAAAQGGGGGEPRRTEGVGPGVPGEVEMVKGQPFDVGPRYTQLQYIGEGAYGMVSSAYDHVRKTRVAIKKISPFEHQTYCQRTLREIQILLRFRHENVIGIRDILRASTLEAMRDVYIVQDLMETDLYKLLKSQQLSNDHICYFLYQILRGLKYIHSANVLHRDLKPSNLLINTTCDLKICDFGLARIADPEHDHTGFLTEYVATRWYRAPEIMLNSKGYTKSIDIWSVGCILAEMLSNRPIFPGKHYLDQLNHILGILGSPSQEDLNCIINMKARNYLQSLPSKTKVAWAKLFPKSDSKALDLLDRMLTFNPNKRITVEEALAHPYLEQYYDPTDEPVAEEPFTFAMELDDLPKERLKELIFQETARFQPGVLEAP

[29] = molecular target: Mitogen-activated protein kinase 14 (Homo sapiens) (UniProt Q16539); assay: Inhibition of p38 alpha (unknown origin) at 1 uM by selectscreen kinase profiling assay in presence of ATP
[30] = molecular target: Phosphatidylinositol 4,5-bisphosphate 3-kinase catalytic subunit gamma isoform (Homo sapiens) (UniProt P48736); assay: Inhibition of PIK3Cgamma (unknown origin) at 1 uM by selectscreen kinase profiling assay in presence of ATP
Phosphatidylinositol 4,5-bisphosphate 3-kinase catalytic subunit gamma isoform (Homo sapiens), sequence (P48736 whole entry, looked up, canonical isoform): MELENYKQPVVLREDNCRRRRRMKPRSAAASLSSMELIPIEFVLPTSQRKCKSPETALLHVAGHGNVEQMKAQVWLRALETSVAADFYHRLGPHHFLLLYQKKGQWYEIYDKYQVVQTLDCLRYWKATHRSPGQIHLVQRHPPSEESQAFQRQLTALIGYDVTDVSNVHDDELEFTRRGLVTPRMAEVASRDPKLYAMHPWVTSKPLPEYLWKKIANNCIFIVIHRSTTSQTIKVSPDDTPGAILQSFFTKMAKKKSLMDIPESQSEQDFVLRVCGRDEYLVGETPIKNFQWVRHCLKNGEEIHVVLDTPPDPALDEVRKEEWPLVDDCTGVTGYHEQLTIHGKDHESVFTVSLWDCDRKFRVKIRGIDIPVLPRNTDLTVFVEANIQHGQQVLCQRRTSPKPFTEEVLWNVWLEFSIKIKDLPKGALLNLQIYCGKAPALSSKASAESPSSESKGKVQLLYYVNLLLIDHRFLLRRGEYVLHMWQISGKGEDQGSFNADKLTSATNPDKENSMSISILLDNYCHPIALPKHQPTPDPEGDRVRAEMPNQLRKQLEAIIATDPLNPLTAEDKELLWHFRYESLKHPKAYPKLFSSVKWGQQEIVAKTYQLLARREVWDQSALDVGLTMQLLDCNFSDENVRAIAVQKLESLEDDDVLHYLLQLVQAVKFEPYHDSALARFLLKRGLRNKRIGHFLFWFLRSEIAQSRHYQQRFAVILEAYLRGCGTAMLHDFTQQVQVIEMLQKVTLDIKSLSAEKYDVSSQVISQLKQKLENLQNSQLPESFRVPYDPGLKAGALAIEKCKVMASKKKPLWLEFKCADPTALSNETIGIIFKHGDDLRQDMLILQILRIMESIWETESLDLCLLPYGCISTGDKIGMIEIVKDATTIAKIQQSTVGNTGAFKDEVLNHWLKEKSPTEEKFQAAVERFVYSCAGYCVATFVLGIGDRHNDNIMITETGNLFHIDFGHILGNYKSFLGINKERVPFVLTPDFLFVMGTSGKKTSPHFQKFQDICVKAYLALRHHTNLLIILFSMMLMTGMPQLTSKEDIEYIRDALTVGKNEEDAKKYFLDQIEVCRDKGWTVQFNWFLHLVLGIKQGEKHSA

[31] = molecular target: Serine/threonine-protein kinase MRCK alpha (Homo sapiens) (UniProt Q5VT25); assay: Inhibition of MRCKalpha (unknown origin) at 1 uM by selectscreen kinase profiling assay in presence of ATP
[32] = molecular target: T1, AMP-activated protein kinase, AMPK (Homo sapiens); assay: Inhibition of AMPK A2/B1/G1 (unknown origin) at 1 uM by selectscreen kinase profiling assay in presence of ATP; format: protein-complex assay
[33] = molecular target: Inhibitor of nuclear factor kappa-B kinase subunit alpha (Homo sapiens) (UniProt O15111); assay: Inhibition of IKKalpha (unknown origin) at 1 uM by selectscreen kinase profiling assay in presence of ATP
Inhibitor of nuclear factor kappa-B kinase subunit alpha (Homo sapiens), sequence (O15111 whole entry): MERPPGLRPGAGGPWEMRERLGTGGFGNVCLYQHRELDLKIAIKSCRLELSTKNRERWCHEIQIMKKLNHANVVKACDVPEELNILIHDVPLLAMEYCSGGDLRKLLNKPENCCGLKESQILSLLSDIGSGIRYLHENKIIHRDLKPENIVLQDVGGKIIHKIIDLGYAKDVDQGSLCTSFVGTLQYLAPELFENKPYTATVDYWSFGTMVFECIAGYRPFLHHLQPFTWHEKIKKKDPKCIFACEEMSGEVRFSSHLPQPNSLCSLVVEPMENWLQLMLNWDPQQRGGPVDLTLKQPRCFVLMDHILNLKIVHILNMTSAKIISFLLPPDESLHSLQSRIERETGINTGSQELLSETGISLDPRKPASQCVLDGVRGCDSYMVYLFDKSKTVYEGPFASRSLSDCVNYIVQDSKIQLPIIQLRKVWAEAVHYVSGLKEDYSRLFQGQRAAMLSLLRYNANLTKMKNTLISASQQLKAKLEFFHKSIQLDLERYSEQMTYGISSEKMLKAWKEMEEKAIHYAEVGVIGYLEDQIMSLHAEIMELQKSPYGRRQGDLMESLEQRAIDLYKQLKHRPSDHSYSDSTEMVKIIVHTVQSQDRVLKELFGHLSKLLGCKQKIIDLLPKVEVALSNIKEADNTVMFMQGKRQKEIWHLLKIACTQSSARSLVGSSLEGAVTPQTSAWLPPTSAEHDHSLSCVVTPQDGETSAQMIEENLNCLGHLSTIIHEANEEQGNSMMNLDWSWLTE

[34] = Antiproliferative activity against human ANGM-CSS cells assessed as inhibition of cell growth after 96 hrs by WST1 assay; format: functional

COc1cc2c(cc1OC)CN(CC(=O)Nc1ccc3c(c1)/C(=C/c1cnc[nH]1)C(=O)N3)CC2
inhibition [1]: 11%
inhibition [2]: 42%
Activity [3]: 68.14%
inhibition [4]: -2%
inhibition [5]: 5%
inhibition [6]: -4%
Activity [7]: 4.93%
inhibition [8]: -5%
inhibition [9]: 61%
Activity [10]: 17.2%
Activity [11]: Active
IC50 [12]: 0.272 µM
inhibition [13]: 26%
Activity [14]: 11.87%
inhibition [15]: 45%
inhibition [16]: 55%
inhibition [17]: Dose-dependent effect
inhibition [18]: 30%
inhibition [19]: -6%
inhibition [20]: -2%
Activity [21]: 6.77%
inhibition [22]: 27%
inhibition [23]: -1%
inhibition [24]: 44%
inhibition [25]: 1%
Activity [26]: 4.1%
inhibition [27]: 12%
inhibition [28]: 37%
inhibition [29]: 4%
inhibition [30]: 5%
inhibition [31]: -8%
inhibition [32]: 30%
inhibition [33]: 26%
GI50 [34]: 7.5 µM
